Assays:
[1] = molecular target: T1, aldehyde dehydrogenase 2 (ALDH-2) (Homo sapiens, UniProt P05091); assay: fluorimetric dehydrogenase activity assay; format: biochemical
T1 sequence (P05091 18-517): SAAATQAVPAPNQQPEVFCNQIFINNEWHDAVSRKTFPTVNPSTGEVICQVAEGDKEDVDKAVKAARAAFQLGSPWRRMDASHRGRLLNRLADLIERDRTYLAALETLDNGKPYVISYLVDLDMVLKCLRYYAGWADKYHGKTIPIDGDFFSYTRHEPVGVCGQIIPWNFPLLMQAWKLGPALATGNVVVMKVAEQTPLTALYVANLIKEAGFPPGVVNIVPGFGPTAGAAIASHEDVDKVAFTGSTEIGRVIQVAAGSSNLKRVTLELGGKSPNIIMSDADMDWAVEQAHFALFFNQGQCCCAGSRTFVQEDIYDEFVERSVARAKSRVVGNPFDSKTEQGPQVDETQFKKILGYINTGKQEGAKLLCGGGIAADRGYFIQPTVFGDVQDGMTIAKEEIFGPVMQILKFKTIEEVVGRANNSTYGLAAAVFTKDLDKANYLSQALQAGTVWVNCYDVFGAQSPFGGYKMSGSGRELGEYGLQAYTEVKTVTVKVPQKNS

ALDH-1 = molecular target: T2, ALDH-1 (Homo sapiens, UniProt P00352); assay: fluorimetric dehydrogenase activity assay; format: biochemical
T2 sequence (P00352 2-501): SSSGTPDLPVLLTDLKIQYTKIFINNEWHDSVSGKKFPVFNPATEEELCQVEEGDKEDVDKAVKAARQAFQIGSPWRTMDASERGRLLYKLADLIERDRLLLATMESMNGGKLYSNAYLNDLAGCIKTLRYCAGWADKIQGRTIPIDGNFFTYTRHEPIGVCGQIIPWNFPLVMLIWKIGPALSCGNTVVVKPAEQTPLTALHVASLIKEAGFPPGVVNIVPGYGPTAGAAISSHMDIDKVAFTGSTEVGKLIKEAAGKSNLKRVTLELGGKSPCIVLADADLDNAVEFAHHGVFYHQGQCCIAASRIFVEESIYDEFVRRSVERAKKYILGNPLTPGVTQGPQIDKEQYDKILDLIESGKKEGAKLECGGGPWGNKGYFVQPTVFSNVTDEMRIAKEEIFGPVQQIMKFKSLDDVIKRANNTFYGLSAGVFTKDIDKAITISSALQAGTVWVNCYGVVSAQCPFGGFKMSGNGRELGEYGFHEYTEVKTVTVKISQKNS

Structure (SMILES): CS(=O)(=O)Nc1ccc(-c2coc3cc(OCc4cccc(C(=O)O)c4)ccc3c2=O)cc1 [CVT-10216, 3-((3-(4-(methylsulfonamido)phenyl)-4-oxo-4H-chromen-7-yloxy)methyl)benzoic acid]
- IC50 [1]: ~29 nM
- IC50 (ALDH-1): 1300 nM

— publication PMC8212937 (Alcoholism, clinical and experimental research, 2009)
